Results from article PMC7374715, “Conservation of Cdc14 phosphatase specificity in plant fungal pathogens: implications for antifungal development” (Scientific Reports, 2020).
Read-outs that look alike come from different tables or passages of the source. Numbered stars: 1 amine (or outer) side, 2 acyl side, 3 side chain; on linkers, the order of the positions; unused ones are H or OH. Square brackets hold non-standard residues; d marks the D form. Ends that are not written are not given here. Peptide text beside a SMILES is read from it. X1 = O=C([C@H](CC(F)(F)P(=O)(O)O)N[*:1])[*:2]; pS = N[C@@H](COP(=O)(O)O)C(=O)O

What was measured:
ScCdc14 [1] = target: T1, ScCdc14 (Saccharomyces cerevisiae, UniProt Q00684); test: Enzyme inhibition, DiFMUP assay; format: biochemical
T1 construct: made in house; host or cells: E. coli BL21 AI
T1 sequence (Q00684 1-447 limits assumed): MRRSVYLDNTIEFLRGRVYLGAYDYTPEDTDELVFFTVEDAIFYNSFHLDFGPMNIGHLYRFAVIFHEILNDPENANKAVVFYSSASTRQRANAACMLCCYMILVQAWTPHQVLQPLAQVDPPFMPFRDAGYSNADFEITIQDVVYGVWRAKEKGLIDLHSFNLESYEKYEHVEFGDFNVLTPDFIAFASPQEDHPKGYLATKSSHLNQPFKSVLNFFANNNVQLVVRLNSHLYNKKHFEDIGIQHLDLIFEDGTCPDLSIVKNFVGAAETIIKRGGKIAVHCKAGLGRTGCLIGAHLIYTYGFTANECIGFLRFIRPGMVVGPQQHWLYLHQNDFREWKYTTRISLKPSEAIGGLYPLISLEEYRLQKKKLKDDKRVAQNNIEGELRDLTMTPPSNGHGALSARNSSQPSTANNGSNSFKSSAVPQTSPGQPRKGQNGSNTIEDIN
From the text: Measured initial rates were converted to percent activity relative to a reaction lacking pCF2Ser peptide. […] Ki is related to IC50 by the equation Ki = IC50/([S]/KM + 1). Since [S] was equal to KM in our assays, Ki = IC50/2.

MoCdc14 [2] = target: T2, MoCdc14 (Pyricularia oryzae, UniProt G4MRC9); test: biochemical; set-up: species or system Magnaporthe oryzae
T2 sequence (G4MRC9 1-474 limits assumed): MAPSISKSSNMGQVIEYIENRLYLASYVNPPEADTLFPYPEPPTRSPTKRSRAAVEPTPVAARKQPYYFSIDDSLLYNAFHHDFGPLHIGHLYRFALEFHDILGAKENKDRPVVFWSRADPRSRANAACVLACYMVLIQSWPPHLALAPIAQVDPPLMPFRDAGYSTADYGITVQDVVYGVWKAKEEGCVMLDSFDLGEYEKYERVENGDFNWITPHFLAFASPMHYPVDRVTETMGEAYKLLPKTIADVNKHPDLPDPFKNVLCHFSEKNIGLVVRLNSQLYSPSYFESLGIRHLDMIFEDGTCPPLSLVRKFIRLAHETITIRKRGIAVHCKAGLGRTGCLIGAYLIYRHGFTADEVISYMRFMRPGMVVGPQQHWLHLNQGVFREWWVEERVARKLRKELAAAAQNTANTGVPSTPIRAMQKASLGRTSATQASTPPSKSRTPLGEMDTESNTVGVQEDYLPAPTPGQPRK

CzCdc14 [3] = format: biochemical, Cercospora zeina; details: pNPP; 25 mM HEPES pH 7.5, 30 °C; mean of 3 ± SD
Description: Activities towards varying concentrations of para-nitrophenyl phosphate (pNPP) were measured in 100 µL assay buffer (25 mM HEPES pH 7.5, 2 mM TCEP, 1 mM EDTA, and 150 mM NaCl) at 30 °C. Enzyme concentrations were chosen to achieve absorbance values within the linear response range while satisfying the steady-state assumption where substrate consumption was < 1%. Reactions were initiated by enzyme addition and stopped with 1 N NaOH. Absorbance at 405 nm was measured on a Synergy H1 microplate reader (BioTek) and converted to product concentration using a para-nitrophenol standard curve. Initial rates were plotted as a function of substrate concentration and fit with the Michealis-Menten equation in GraphPad Prism (Version 8) to determine kcat and KM.

MoCdc14 [4] = target: T2, MoCdc14; details: pNPP; 25 mM HEPES pH 7.5, 30 °C; mean of 3 ± SD
CzCdc14 [5] = details: DiFMUP; 0.5 nM enzyme, pH 7.5, 30 °C; mean of 3 ± SD
Description: All enzyme concentrations were 0.5 nM, except for PsCdc14 and VHR, which were assayed at 2 and 5 nM, respectively. Fluorescence intensity was measured continuously on a Synergy H1 microplate reader (BioTek) with excitation and emission wavelengths set at 358 and 450 nm, respectively. Fluorescence intensity was converted to product concentration using a 6,8-difluoro-4-methylumbelliferone standard curve. Background fluorescence was subtracted from each reaction and initial rates were calculated from the slope of the linear portion of the product concentration versus time plots. kcat and KM were calculated as described above.

MoCdc14 [6] = target: T2, MoCdc14; details: DiFMUP; 0.5 nM enzyme, pH 7.5, 30 °C; mean of 3 ± SD
AnCdc14 [7] = target: T3, AnCdc14 (Aspergillus niger, UniProt A2QDS6); test: Phosphopeptide steady-state kinetics (Biomol Green); format: biochemical; details: phosphopeptide pS, pH 7.5, 30 °C, mean of 3 ± SD
T3 sequence (A2QDS6 1-476 limits assumed): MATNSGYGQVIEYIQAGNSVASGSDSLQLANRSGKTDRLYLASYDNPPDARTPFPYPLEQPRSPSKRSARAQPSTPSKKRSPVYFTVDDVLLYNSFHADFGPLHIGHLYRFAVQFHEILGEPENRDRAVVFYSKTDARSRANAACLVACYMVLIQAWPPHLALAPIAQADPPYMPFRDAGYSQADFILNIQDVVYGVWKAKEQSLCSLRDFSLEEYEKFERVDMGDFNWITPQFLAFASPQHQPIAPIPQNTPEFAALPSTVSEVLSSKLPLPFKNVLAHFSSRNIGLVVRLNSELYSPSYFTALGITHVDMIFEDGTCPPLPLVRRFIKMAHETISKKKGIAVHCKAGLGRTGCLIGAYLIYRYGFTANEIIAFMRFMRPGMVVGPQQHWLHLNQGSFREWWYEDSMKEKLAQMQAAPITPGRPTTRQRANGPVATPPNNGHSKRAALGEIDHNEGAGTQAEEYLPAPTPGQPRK

CzCdc14 [8] = test: as above; format: biochemical, Cercospora zeina; details: phosphopeptide pS, pH 7.5, 30 °C, mean of 3 ± SD
Description: (§1) Activities towards varying concentrations of the synthetic phosphopeptide HT(pSer)PIKSIG (Genscript Corp) were measured in 50 µL assay buffer at 30 °C essentially as described above for pNPP, except substrate consumption was limited to 10% due to limited assay sensitivity and the reaction was stopped with 100 µL Biomol Green (Enzo Life Sciences).

MoCdc14 [9] = target: T2, MoCdc14; format: biochemical, Magnaporthe oryzae; details: phosphopeptide pS; pH 7.5, 30 °C; Biomol Green; mean of 3 ± SD
BcCdc14 [10] = target: T4, BcCdc14 (Botrytis cinerea, UniProt A0A384J4N9); test: Phosphopeptide steady-state kinetics (Biomol Green); format: biochemical; details: phosphopeptide pS, pH 7.5, 30 °C, mean of 3 ± SD
T4 sequence (A0A384J4N9 1-492): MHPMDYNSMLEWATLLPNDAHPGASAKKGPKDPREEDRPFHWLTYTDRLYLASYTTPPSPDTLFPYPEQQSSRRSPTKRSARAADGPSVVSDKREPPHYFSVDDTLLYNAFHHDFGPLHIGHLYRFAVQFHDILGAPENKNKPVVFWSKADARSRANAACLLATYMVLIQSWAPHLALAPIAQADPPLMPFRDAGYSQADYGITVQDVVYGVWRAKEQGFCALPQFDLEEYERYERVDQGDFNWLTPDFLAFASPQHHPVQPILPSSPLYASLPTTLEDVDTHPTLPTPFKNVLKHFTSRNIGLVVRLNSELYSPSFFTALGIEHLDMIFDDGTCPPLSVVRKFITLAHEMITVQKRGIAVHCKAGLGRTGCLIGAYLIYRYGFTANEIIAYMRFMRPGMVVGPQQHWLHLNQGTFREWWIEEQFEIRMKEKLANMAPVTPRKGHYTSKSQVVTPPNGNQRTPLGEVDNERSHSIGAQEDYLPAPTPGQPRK
Description: as §1

CgCdc14 [11] = target: T5, CgCdc14 (Colletotrichum gloeosporioides, UniProt A0A8H4CJA2); test: as above; format: biochemical; details: phosphopeptide pS, pH 7.5, 30 °C, mean of 3 ± SD
T5 sequence (A0A8H4CJA2 entry or part of it): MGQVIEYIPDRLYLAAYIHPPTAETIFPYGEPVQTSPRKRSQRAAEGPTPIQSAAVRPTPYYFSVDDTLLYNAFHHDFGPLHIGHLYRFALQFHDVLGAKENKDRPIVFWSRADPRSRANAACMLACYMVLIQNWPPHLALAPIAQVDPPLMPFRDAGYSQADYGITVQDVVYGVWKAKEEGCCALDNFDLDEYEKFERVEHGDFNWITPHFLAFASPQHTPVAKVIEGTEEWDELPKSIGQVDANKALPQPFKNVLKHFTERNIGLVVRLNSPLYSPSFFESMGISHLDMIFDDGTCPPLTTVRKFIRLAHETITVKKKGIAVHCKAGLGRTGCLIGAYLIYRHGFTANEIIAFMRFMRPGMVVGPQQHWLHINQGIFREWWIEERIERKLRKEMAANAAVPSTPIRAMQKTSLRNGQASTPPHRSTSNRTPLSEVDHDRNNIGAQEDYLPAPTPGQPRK
Description: as §1

RsCdc14 [12] = target: T6, RsCdc14 (Rhizoctonia solani, UniProt L8WYM4); test: as above; format: biochemical; details: phosphopeptide pS, pH 7.5, 30 °C, mean of 3 ± SD
T6 sequence (L8WYM4 2-162 limits assumed): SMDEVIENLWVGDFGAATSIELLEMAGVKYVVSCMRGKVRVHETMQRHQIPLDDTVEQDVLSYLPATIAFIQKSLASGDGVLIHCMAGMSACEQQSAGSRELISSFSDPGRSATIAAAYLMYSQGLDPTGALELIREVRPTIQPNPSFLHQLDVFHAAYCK
Description: as §1

ScCdc14 [13] = target: T1, ScCdc14; test: as above; format: biochemical; details: phosphopeptide pS, pH 7.5, 30 °C, mean of 3 ± SD
Description: as §1

BcCdc14 [14] = target: T4, BcCdc14; test: MS specificity constant assay; format: biochemical; details: pooled phosphopeptides 375 nM each, 1 to 1,000 nM Cdc14, pH 7.5, 30 °C; LC-MS; mean of 3 ± SD
From the text: (§2) Our primary interest was the conservation of substrate specificity. To define the specificities of the eight fungal pathogen Cdc14 homologs and compare them to the well-characterized ScCdc14, we developed a new assay that uses mass spectrometry (MS) to measure the specificity constant, kcat/KM, for a collection of synthetic phosphopeptide substrates (Fig. 3a). This assay, based on a similar assay for measuring protease specificity, is more sensitive and has a much broader linear dynamic range (Fig. 3b) than the conventional malachite green colorimetric assay used to generate the phosphopeptide data in Table 1. These advantages made it convenient for measuring Cdc14 activity towards substrates whose specificity constants can vary by several orders of magnitude. The assay also increases throughput by allowing simultaneous measurement of kcat/KM for many different substrates. The peptides were based on the Yen1 Ser583 sequence with variations designed to test the importance of the four known ScCdc14 substrate recognition features (phosphoamino acid identity, + 1 Pro, + 3 Lys/Arg, Lys/Arg near + 3). Measurements were made by integrating MS chromatogram peak areas for the phosphorylated and dephosphorylated peptide species after Cdc14 treatment and using those values to calculate the fraction of substrate consumed (Fig. 3c; see “Methods” for details). […] Results from this assay were in reasonably good agreement with conventional steady-state kinetic measurements of kcat and KM using a malachite green spectroscopic assay (compare substrate pS in Tables 1 and 2), although the MS assay consistently yielded kcat/KM ~ three to fivefold higher, likely due to sensitivity limitations of the malachite green assay with high affinity substrates.
(§3) kcat/KM measurements can be made on pooled substrate mixtures for characterizing enzymatic specificity, provided substrate concentrations are far below KM[38]. Mass spectrometry is a useful tool for monitoring reaction progress in such mixtures, as long as each substrate and product has a unique mass. […]

CgCdc14 [15] = target: T5, CgCdc14; test: MS specificity constant assay; format: biochemical; details: pooled phosphopeptides 375 nM each, 1 to 1,000 nM Cdc14, pH 7.5, 30 °C; LC-MS; mean of 3 ± SD
From the text: as §2, §3

ScCdc14 [16] = target: T1, ScCdc14; test: MS specificity constant assay; format: biochemical; details: pooled phosphopeptides 375 nM each, 1 to 1,000 nM Cdc14, pH 7.5, 30 °C; LC-MS; mean of 3 ± SD
From the text: as §2, §3

AnCdc14 [17] = target: T3, AnCdc14; test: MS specificity constant assay; format: biochemical; details: pooled phosphopeptides 375 nM each, 1 to 1,000 nM Cdc14, pH 7.5, 30 °C; LC-MS; mean of 3 ± SD
CzCdc14 [18] = test: MS specificity constant assay; format: biochemical, Cercospora zeina; details: pooled phosphopeptides 375 nM each, 1 to 1,000 nM Cdc14, pH 7.5, 30 °C; LC-MS; mean of 3 ± SD
From the text: (§4) Our primary interest was the conservation of substrate specificity. To define the specificities of the eight fungal pathogen Cdc14 homologs and compare them to the well-characterized ScCdc14, we developed a new assay that uses mass spectrometry (MS) to measure the specificity constant, kcat/KM, for a collection of synthetic phosphopeptide substrates (Fig. 3a). This assay, based on a similar assay for measuring protease specificity, is more sensitive and has a much broader linear dynamic range (Fig. 3b) than the conventional malachite green colorimetric assay used to generate the phosphopeptide data in Table 1. These advantages made it convenient for measuring Cdc14 activity towards substrates whose specificity constants can vary by several orders of magnitude. The assay also increases throughput by allowing simultaneous measurement of kcat/KM for many different substrates. The peptides were based on the Yen1 Ser583 sequence with variations designed to test the importance of the four known ScCdc14 substrate recognition features (phosphoamino acid identity, + 1 Pro, + 3 Lys/Arg, Lys/Arg near + 3). Measurements were made by integrating MS chromatogram peak areas for the phosphorylated and dephosphorylated peptide species after Cdc14 treatment and using those values to calculate the fraction of substrate consumed (Fig. 3c; see “Methods” for details). […]

MoCdc14 [19] = target: T2, MoCdc14; format: biochemical, Magnaporthe oryzae; details: pooled phosphopeptides 375 nM each, 1 to 1,000 nM Cdc14, pH 7.5, 30 °C; LC-MS; mean of 3 ± SD
RsCdc14 [20] = target: T6, RsCdc14; test: MS specificity constant assay; format: biochemical; details: pooled phosphopeptides 375 nM each, 1 to 1,000 nM Cdc14, pH 7.5, 30 °C; LC-MS; mean of 3 ± SD
UmCdc14 = test: MS specificity constant assay; format: biochemical, Ustilago maydis; details: pooled phosphopeptides 375 nM each, 1 to 1,000 nM Cdc14, pH 7.5, 30 °C; LC-MS; mean of 3 ± SD
From the text: as §4

all Cdc14 homologs = test: MS specificity constant assay, all homologs compared; format: biochemical
From the text: as §4

## CC(C)[C@H](NC(=O)[C@@H](N)CCC(=O)O)C(=O)N[C@@H](CC(F)(F)P(=O)(O)O)C(=O)N1CCC[C@H]1C(=O)N[C@H](C(=O)N[C@@H](CCCCN)C(=O)N[C@@H](CCCNC(=N)N)C(N)=O)[C@@H](C)O [pCF2Ser peptide, Glu-Val-pCF2Ser-Pro-Thr-Lys-Arg-amide] (H-EV[X1]PTKR-NH2)
ScCdc14 [1]
  Ki: 3.2 ± 1 µM
MoCdc14 [2]
  Ki: 3.4 ± 1.2 µM

## O=[N+]([O-])c1ccc(OP(=O)(O)O)cc1 [pNPP, para-nitrophenyl phosphate]
CzCdc14 [3]
  Km: 25000 ± 2000 µM
  kcat: 2.8 ± 0.1 s⁻¹
  kcat/KM: 115 ± 6 M⁻¹ s⁻¹
MoCdc14 [4]
  kcat: 1.02 ± 0.03 s⁻¹
  kcat/KM: 40 ± 2 M⁻¹ s⁻¹

## Cc1cc(=O)oc2c(F)c(OP(=O)(O)O)c(F)cc12 [DiFMUP]
CzCdc14 [5]
  Km: 66 ± 11 µM
  kcat: 31 ± 2 s⁻¹
  kcat/KM: 477,000 ± 10,600 M^−1 s^−1
MoCdc14 [6]
  kcat: 3 ± 0.5 s⁻¹
  kcat/KM: 68,000 ± 6,100 M^−1 s^−1

## HT[pS]PIKSIG
AnCdc14 [7]
  Km: 194 ± 44 µM
  kcat: 1.0 ± 0.1 s⁻¹
  kcat/KM: 5,100 ± 800 M^−1 s^−1
CzCdc14 [8]
  Km: 62 ± 14 µM
  kcat: 2.1 ± 0.1 s⁻¹
  kcat/KM: 34,000 ± 8,000 M^−1 s^−1
MoCdc14 [9]
  Km: 63 ± 19 µM
  kcat: 0.4 ± 0.02 s⁻¹
  kcat/KM: 6,200 ± 1,700 M^−1 s^−1
BcCdc14 [10]
  Km: 297 ± 38 µM
  kcat/KM: 3,400 ± 300 M^−1 s^−1
CgCdc14 [11]
  Km: 351 ± 21 µM
  kcat: 2.2 ± 0.1 s⁻¹
  kcat/KM: 6,200 ± 200 M^−1 s^−1
RsCdc14 [12]
  Km: 178 ± 52 µM
  kcat: 0.52 ± 0.07 s⁻¹
  kcat/KM: 3,000 ± 600 M^−1 s^−1
ScCdc14 [13]; 640 nm
  kcat: 1.4 ± 0.1 s⁻¹
ScCdc14 [13]
  Km: 173 ± 21 µM
  kcat/KM: 7,800 ± 300 M^−1 s^−1
BcCdc14 [14]
  specificity constant kcat/KM: 15,700 ± 1,200 M^−1 s^−1
CgCdc14 [15]
  specificity constant kcat/KM: 19,400 ± 1,800 M^−1 s^−1
ScCdc14 [16]
  specificity constant kcat/KM: 21,100 ± 1,400 M^−1 s^−1
AnCdc14 [17]
  specificity constant kcat/KM: 25,200 ± 2,200 M^−1 s^−1
CzCdc14 [18]
  specificity constant kcat/KM: 110,800 ± 10,600 M^−1 s^−1
MoCdc14 [19]
  specificity constant kcat/KM: 17,000 ± 2,500 M^−1 s^−1
RsCdc14 [20]
  specificity constant kcat/KM: 17,300 ± 1,500 M^−1 s^−1
UmCdc14
  specificity constant kcat/KM: 12,900 ± 3,300 M^−1 s^−1
All Cdc14 homologs
  kcat/KM of pSer-containing peptide higher than pThr-containing peptide: > 1,000 fold
  kcat/KM of pSer-containing peptide higher than pTyr-containing peptide: > 100 fold
